The source made the active and inactive calls. The rule behind the calls is not given here.

The source of these data is PubChem BioAssay AID1259407 (Chemical Carcinogenesis Research Information System (CCRIS), 2018).

In this series the test system is CCRIS mutagenicity, Ames/micronucleus/aberration tests. As to the kind of experiment: CCRIS mutagenicity studies.
The mark [1] stands for this setting: Test System: AMES SALMONELLA TYPHIMURIUM, Strain/Indicator: TA98, Metabolic Activation: NONE, Method: STANDARD PLATE.
[2] abbreviates: Test System: AMES SALMONELLA TYPHIMURIUM, Strain/Indicator: TA100, Metabolic Activation: NONE, Method: STANDARD PLATE.

With `O=NN1CCCC1`, the mutagenic call (Test System: AMES SALMONELLA TYPHIMURIUM, Strain/Indicator: TA97, Metabolic Activation: NONE, Method: STANDARD PLATE) is “inactive; negative”; the mutagenic call (Test System: AMES SALMONELLA TYPHIMURIUM, Strain/Indicator: TA97, Metabolic Activation: RAT, LIVER, S-9, AROCLOR 1254, Method: STANDARD PLATE) is “inactive; negative”; the mutagenic call under setting [1] was “inactive; negative”; the mutagenic call (Test System: AMES SALMONELLA TYPHIMURIUM, Strain/Indicator: TA98, Metabolic Activation: RAT, LIVER, S-9, AROCLOR 1254, Method: STANDARD PLATE) was “inactive; negative”; the mutagenic call (Test System: AMES SALMONELLA TYPHIMURIUM, Strain/Indicator: TA100, Metabolic Activation: HAMSTER, LIVER, S-9, Method: PREINCUBATION) is “active; positive”; the mutagenic call (Test System: AMES SALMONELLA TYPHIMURIUM, Strain/Indicator: TA100, Metabolic Activation: HUMAN, LIVER, S-9, Method: PREINCUBATION) is “active; positive”. Also, the mutagenic call by setting is: under setting [2], “inactive; negative”; (Test System: AMES SALMONELLA TYPHIMURIUM, Strain/Indicator: TA100, Metabolic Activation: PIG, LIVER, S-9, Method: PREINCUBATION) “active; positive”; (Test System: AMES SALMONELLA TYPHIMURIUM, Strain/Indicator: TA100, Metabolic Activation: RABBIT, LIVER, S-9, Method: STANDARD PLATE) “inactive; negative”; (Test System: AMES SALMONELLA TYPHIMURIUM, Strain/Indicator: TA100, Metabolic Activation: RABBIT, LUNG, S-9, Method: STANDARD PLATE) “inactive; negative rabbit, lung, s-9”; (Test System: AMES SALMONELLA TYPHIMURIUM, Strain/Indicator: TA100, Metabolic Activation: RABBIT, NASAL, S-9, Method: STANDARD PLATE) “active; positive”; (Test System: AMES SALMONELLA TYPHIMURIUM, Strain/Indicator: TA100, Metabolic Activation: RAT, ESOPHAGUS, S-9, Method: PREINCUBATION) “active; positive”. Also, the mutagenic call by setting is: (Test System: AMES SALMONELLA TYPHIMURIUM, Strain/Indicator: TA100, Metabolic Activation: RAT, FORESTOMACH, S-9, Method: PREINCUBATION) “active; positive”; (Test System: AMES SALMONELLA TYPHIMURIUM, Strain/Indicator: TA100, Metabolic Activation: RAT, GLANDULAR STOMACH, S-9, Method: PREINCUBATION) “active; positive”; (Test System: AMES SALMONELLA TYPHIMURIUM, Strain/Indicator: TA100, Metabolic Activation: RAT, LIVER, S-9, AROCLOR 1254, Method: PREINCUBATION) “active; positive”; (Test System: AMES SALMONELLA TYPHIMURIUM, Strain/Indicator: TA100, Metabolic Activation: RAT, LIVER, S-9, AROCLOR 1254, Method: STANDARD PLATE) “inactive; negative”; (Test System: AMES SALMONELLA TYPHIMURIUM, Strain/Indicator: TA100, Metabolic Activation: RAT, LIVER, S-9, Method: PREINCUBATION) “inactive; negative”; (Test System: AMES SALMONELLA TYPHIMURIUM, Strain/Indicator: TA100, Metabolic Activation: RAT, LIVER, S-9, Method: STANDARD PLATE) “inactive; negative”. The mutagenic call (Test System: AMES SALMONELLA TYPHIMURIUM, Strain/Indicator: TA100, Metabolic Activation: RAT, LUNG, S-9, Method: STANDARD PLATE) was “inactive; negative”; the mutagenic call (Test System: AMES SALMONELLA TYPHIMURIUM, Strain/Indicator: TA100, Metabolic Activation: RAT, NASAL, S-9, Method: STANDARD PLATE) is “active; positive”; the mutagenic call (Test System: AMES SALMONELLA TYPHIMURIUM, Strain/Indicator: TA102, Metabolic Activation: RAT, LIVER, S-9, AROCLOR 1254, Method: PREINCUBATION) was “active; positive”; the mutagenic call (Test System: AMES SALMONELLA TYPHIMURIUM, Strain/Indicator: TA104, Metabolic Activation: RAT, LIVER, S-9, AROCLOR 1254, Method: PREINCUBATION) was “active; positive”; the mutagenic call (Test System: AMES SALMONELLA TYPHIMURIUM, Strain/Indicator: TA1530, Metabolic Activation: RAT LIVER, CYTOSOL, ISONIAZID, Method: PREINCUBATION) is “inactive; negative”; the mutagenic call (Test System: AMES SALMONELLA TYPHIMURIUM, Strain/Indicator: TA1530, Metabolic Activation: RAT LIVER, MICROSOMES, ISONIAZID, Method: PREINCUBATION) was “active; positive”. The mutagenic call reads like this: (Test System: AMES SALMONELLA TYPHIMURIUM, Strain/Indicator: TA1530, Metabolic Activation: RAT, LIVER, S-9, Method: STANDARD PLATE) “active; positive”; (Test System: AMES SALMONELLA TYPHIMURIUM, Strain/Indicator: TA1535, Metabolic Activation: RAT, LIVER, MICROSOMES, Method: PREINCUBATION) “active; positive”; (Test System: AMES SALMONELLA TYPHIMURIUM, Strain/Indicator: TA1535, Metabolic Activation: RAT, LIVER, S-9, 3-METHYLCHOLANTHRENE, Method: STANDARD PLATE) “inactive; negative”; (Test System: AMES SALMONELLA TYPHIMURIUM, Strain/Indicator: TA1535, Metabolic Activation: RAT, LIVER, S-9, AROCLOR 1254, Method: PREINCUBATION) “active; positive”; (Test System: AMES SALMONELLA TYPHIMURIUM, Strain/Indicator: TA1535, Metabolic Activation: RAT, LIVER, S-9, ETHANOL, Method: STANDARD PLATE) “active; positive”; (Test System: AMES SALMONELLA TYPHIMURIUM, Strain/Indicator: TA1535, Metabolic Activation: RAT, LIVER, S-9, PHENOBARBITAL, Method: STANDARD PLATE) “active; positive”. Besides, the mutagenic call (Test System: AMES SALMONELLA TYPHIMURIUM, Strain/Indicator: TA1535, Metabolic Activation: RAT, LIVER, S-9, PHENOBARBITONE AND BETA-NAPHTHOFLAVONE, Method: PREINCUBATION) is “active; positive”; the mutagenic call (Test System: AMES SALMONELLA TYPHIMURIUM, Strain/Indicator: TA1535, Metabolic Activation: RAT, LIVER, S-9, PHENOBARBITONE AND BETA-NAPHTHOFLAVONE, Method: STANDARD PLATE) is “active; positive”; the mutagenic call (Test System: AMES SALMONELLA TYPHIMURIUM, Strain/Indicator: TA1535, Metabolic Activation: RAT, LIVER, S-9, PYRAZOLE, Method: PREINCUBATION) was “active; positive”; the mutagenic call (Test System: AMES SALMONELLA TYPHIMURIUM, Strain/Indicator: TA1535, Metabolic Activation: RAT, LIVER, S-9, PYRAZOLE, Method: STANDARD PLATE) was “active; positive”; the mutagenic call (Test System: AMES SALMONELLA TYPHIMURIUM, Strain/Indicator: TA1975, Metabolic Activation: RAT, LIVER, S-9, AROCLOR 1254, Method: PREINCUBATION) was “active; positive”; the mutagenic call (Test System: AMES SALMONELLA TYPHIMURIUM, Strain/Indicator: TA2410, Metabolic Activation: NONE, Method: HOST-MEDIATED) is “inactive; negative”. Besides, the mutagenic call (Test System: AMES SALMONELLA TYPHIMURIUM, Strain/Indicator: TA2678, Metabolic Activation: NONE, Method: HOST-MEDIATED) is “inactive; negative”; the mutagenic call (Test System: Ames Salmonella typhimurium, Strain/Indicator: YG7108, Metabolic Activation: Rat, Liver, S-9, Phenobarbital/beta-naphtoflavone, Method: Standard plate) is “active; positive”; the mutagenic call (Test System: Ames Salmonella typhimurium, Strain/Indicator: YG7108pin3ERb5, Metabolic Activation: None, Method: Standard plate) was “active; positive”; the mutagenic call (Test System: CHINESE HAMSTER OVARY, Strain/Indicator: CHO-K1-BH4 (HGPRT), Metabolic Activation: RAT, LIVER, S-9, AROCLOR, Method: SUSPENSION/PLATE) was “active; positive”; the mutagenic call (Test System: CHINESE HAMSTER V-79, Strain/Indicator: V-79/8-AZAGUANINE, Metabolic Activation: RAT, LIVER, S-15, PHENOBARBITAL, Method: STANDARD PLATE) is “active; positive”; the mutagenic call (Test System: UDS RODENT HEPATOCYTES, Strain/Indicator: THY INCORP (NON-S-PHASE), Method: AUTORADIOGRAPHY) was “active; positive”.

As to `Nc1ccnc2ccccc12`, the mutagenic call (Test System: AMES SALMONELLA TYPHIMURIUM, Strain/Indicator: TA98, Metabolic Activation: NONE, Method: PREINCUBATION) was “inactive; negative”; the mutagenic call (Test System: AMES SALMONELLA TYPHIMURIUM, Strain/Indicator: TA98, Metabolic Activation: RAT, LIVER, S-9, KANECHLOR 500 OR PHENOBARBITAL AND BETA-NAPHTHOFLAVONE, Method: PREINCUBATION) was “inactive; negative”; the mutagenic call (Test System: AMES SALMONELLA TYPHIMURIUM, Strain/Indicator: TA100, Metabolic Activation: NONE, Method: PREINCUBATION) is “inactive; negative”; the mutagenic call (Test System: AMES SALMONELLA TYPHIMURIUM, Strain/Indicator: TA100, Metabolic Activation: RAT, LIVER, S-9, KANECHLOR 500 OR PHENOBARBITAL AND BETA-NAPHTHOFLAVONE, Method: PREINCUBATION) was “inactive; negative”.

As for `O=[N+]([O-])c1cc2c(cc1Cl)Oc1cc(Cl)c(Cl)cc1O2`, the mutagenic call under setting [1] is “active; positive”; the mutagenic call (Test System: AMES SALMONELLA TYPHIMURIUM, Strain/Indicator: TA98, Metabolic Activation: RAT, LIVER, S-9, AROCLOR, Method: STANDARD PLATE) was “active; positive”; the mutagenic call under setting [2] was “active; positive”; the mutagenic call (Test System: AMES SALMONELLA TYPHIMURIUM, Strain/Indicator: TA100, Metabolic Activation: RAT, LIVER, S-9, AROCLOR, Method: STANDARD PLATE) is “active; positive”.
